Here are results for 27 compounds from patent US20100298300A1, “TRIAZOLOPYRAZINE COMPOUNDS USEFUL FOR THE TREATMENT OF DEGENERATIVE & INFLAMMATORY DISEASES” (priority 2006, published 2010).

Each structure is given as a SMILES string. A value given as a limit tells only on which side of the number the result lay.

The target of one assay is T1, MAPKAPK5 (Homo sapiens, UniProt Q8IW41).
T1 sequence (Q8IW41 1-471 isoform Q8IW41-2): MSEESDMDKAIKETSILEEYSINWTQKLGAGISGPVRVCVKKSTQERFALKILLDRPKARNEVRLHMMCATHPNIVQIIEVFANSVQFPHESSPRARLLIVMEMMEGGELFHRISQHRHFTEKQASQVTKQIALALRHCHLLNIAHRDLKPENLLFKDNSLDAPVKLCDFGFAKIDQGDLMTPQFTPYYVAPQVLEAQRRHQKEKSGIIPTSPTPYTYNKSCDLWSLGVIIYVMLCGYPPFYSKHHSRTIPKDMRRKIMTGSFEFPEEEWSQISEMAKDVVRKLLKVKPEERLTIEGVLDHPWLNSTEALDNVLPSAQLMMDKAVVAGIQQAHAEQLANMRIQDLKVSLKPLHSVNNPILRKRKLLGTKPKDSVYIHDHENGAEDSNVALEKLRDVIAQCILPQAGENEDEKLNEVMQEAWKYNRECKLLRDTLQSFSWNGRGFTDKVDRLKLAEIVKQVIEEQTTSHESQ
The assay can be described thus: MAPKAP-K5 assay (FlashPlate kinase assay).

Assay [1] concerns TNFα release by human PBMCs. The assay can be described thus: Cytokine release by LPS stimulated human PBMCs (TNFα ELISA). It is filed as cell-based. Conditions: PBMC, 24 h, Table 5, LPS 1 μg/mL. The method, then: For the assay PBMCs are seeded at 2.5E6 cells/mL in 160 μL in 96-well plates (Nunc). Serial dilution of the test compounds are made first in DMSO (Sigma) and then diluted 50-fold in M199 medium (Gibco) containing 1% heat-inactivated FBS. Compounds are further 1/10 diluted in the assay plates to obtain final DMSO concentration of 0.2%. Cells are preincubated with the compounds for 1 hr at 37° C., 5% CO2. Then, cells are stimulated with LPS (Escherichia coli serotype 026:B6, Cat. No. L2654, Sigma) that is added in a volume of 20 μL to a final concentration of 1 μg/mL and cells are further cultured for 24 hr. The plates are centrifuged and the supernatant is collected and stored at −80° C. until analysis of appropriate dilutions in ELISAs.
After 4 hr incubation at RT, blocking buffer is removed and plates are washed once with PBST (1×PBS with 0.05% Tween-20 (Sigma)). Then, 40 μL of sample is transferred to the ELISA plates and plates are incubated at 4° C. […] After 2 h of incubation at RT, plates are washed as described above and 35 μL/well of a 1/2000 dilution of streptavidin-HRP conjugate (Cat. No. SNN2004, Biosource) in buffer D is added. After 45 min, plates are washed as described above and incubated for 5 min with 50 μL/well BM Chemiluminescence ELISA Substrate POD (Roche). Readout is performed on the Luminoscan Ascent Luminometer (Labsystems) with an integration time of 100 msec delivering raw data (RLU: relative luminescence units). The following controls are included in the experiments, a maximal signal control, in which the cells are activated by LPS but only the 0.2% DMSO vehicle (and thus no compound) is added. […] A minimal signal control is also included in these experiments. Here, cells are not triggered. […] Where compounds are tested at 8 concentrations (1/3 serial dilution), EC50-values can be calculated by curve fitting of the means of the PIN data achieved for a compound at each test concentration.
For orientation: In an ELISA, binding on a coated surface is turned into a signal by an enzyme label.

The subject of assay [2] is MMP1 expression by activated primary synovial fibroblasts. Kind of assay: 'MMP assay': MMP1 expression by complex trigger activated synovial fibroblasts (MMP1 ELISA). It is filed as cell-based. Conditions: Homo sapiens, Fibroblast; Table 3; RASFs, complex trigger, 48 hrs, MMP1 ELISA.

As a reminder, the IC50 is the midpoint of a concentration-inhibition curve. Low readings indicate inhibition by little substance, high ones a need for much substance. Broadly, the EC50 is the concentration that produces a half-maximal response. High values mean a need for much substance, low ones an effect from little substance.

Method for MAPKAPK5: MAPKAP-K5 reactions are performed in FlashPlate format using 0.1 or 0.2 μCi 33P-ATP; 0.6 μM ATP; 1 mU MAPKAP-K5; 3 μM MAPKAP-K5 peptide substrate, incubated at room temperature for 30 minutes.
The MAPKAP-K5 kinase reaction is performed in a 384 well polypropylene plate (Matrix Technologies) and then transferred to a streptavidin-coated 384 well flashplate (Perkin-Elmer).
To wells containing 2 μL test compound or standard inhibitor, 13 μL Enzyme mix or diluent are added using a Hydra (Robbins Scientific).
Reactions are started by addition of 10 μL of [2,5×] substrate cocktail using a Multidrop (Thermo-Labsystems), to give final concentrations in the assay of:
Plates are incubated at room temperature for 30 minutes.
Reactions are terminated by the addition of 25 μL EDTA (50 mM) to each well using a Micro-fill (Biotek).
Reactions are transferred to a streptavidin-coated flashplate using a Zymark robotic system. Plates are incubated for 60 minutes at room temperature.
All wells are washed 3 times with 100 μl phosphate buffered saline using a Tecan plate washer.
Radioactivity is determined by scintillation counting of the flashplate (empty wells) on a Packard TopCount.
Enzyme Mix: • Enzyme • 50 mM Tris Hcl (pH 7.5) • 0.1 mM EGTA • 2 mM DTT • 1 mg/mL BSA
Reaction Buffer: • 50 mM Tris Hcl (pH 7.5) • 0.1 mM EGTA • 10 mM Magnesium acetate • 2 mM DTT

Take `CN1CCN(c2ccc(Nc3ncc(-c4ccc(C(N)=O)s4)n4ncnc34)cc2)CC1` [Compound 9, 5-{8-[4-(4-Methyl-piperazin-1-yl)-phenylamino]-[1,2,4]triazolo[1,5-a]pyrazin-5-yl}-thiophene-2-carboxylic acid amide]: the IC50 against MAPKAPK5 is 501 to 1000 nM. In addition, the EC50 is 101 to 500 nM in assay [1] and 501 to 1000 nM in assay [2].

As for `NC(=O)c1ccc(-c2cnc(Nc3ccc(N4CCOCC4)cc3)c3ncnn23)c(F)c1` [Compound 10], on MAPKAPK5, the IC50 is above 1000 nM. The EC50 in assay [1] is above 1000 nM; in assay [2] it was 501 to 1000 nM.

At MAPKAPK5, `NC(=O)c1ccc(-c2cnc(Nc3ccc(N4CCOCC4)cc3)c3ncnn23)cc1F` [Compound 11] yielded an IC50 above 1000 nM. In addition, the values for the EC50 in assay [1] and in assay [2] were above 1000 nM and 101 to 500 nM, respectively.

As to `Cc1[nH]ncc1-c1cnc(Nc2ccc(N3CCOCC3)cc2)c2ncnn12` [Compound 12, 5-(5-Methyl-1H-pyrazol-4-yl)-N-(4-morpholinophenyl)-[1,2,4]triazolo[1,5-a]pyrazin-8-amine], the IC50 on MAPKAPK5 lay within 501 to 1000 nM. The EC50 in assay [1] is above 1000 nM; in assay [2] it was 501 to 1000 nM.

`NC(=O)c1ccc(-c2cnc(Nc3ccc(N4CCOCC4)cc3)c3ncnn23)s1` [Compound 13] showed a 50% inhibitory concentration (IC50) against MAPKAPK5 above 1000 nM. In addition, the figures for the EC50 in assay [1] and in assay [2] were above 1000 nM and 101 to 500 nM, respectively.

Take `NC(=O)c1c(F)cc(-c2cnc(Nc3ccc(N4CCOCC4)cc3)c3ncnn23)cc1F` [Compound 14]: the IC50 on MAPKAPK5 was above 1000 nM. For the same compound, the EC50 in assay [1] and in assay [2] was above 1000 nM throughout.

With `NC(=O)c1cc(-c2cnc(Nc3ccc(N4CCOCC4)cc3)c3ncnn23)cs1` [Compound 15, 4-[8-(4-Morpholin-4-yl-phenylamino)-[1,2,4]triazolo[1,5-a]pyrazin-5-yl]-thiophene-2-carboxylic acid amide], the IC50 on MAPKAPK5 was 101 to 500 nM. Also, the EC50 in assay [1] lay within 501 to 1000 nM; in assay [2], 101 to 500 nM.

As to `Cc1[nH]ncc1-c1cnc(Nc2ccc(N3CCN(C)CC3)cc2)c2ncnn12` [Compound 16, 5-(5-Methyl-1H-pyrazol-4-yl)-N-(4-(4-methylpiperazin-1-yl)phenyl)-[1,2,4]triazolo[1,5-a]pyrazin-8-amine], the IC50 against MAPKAPK5 was above 1000 nM. Moreover, the EC50 in assay [1] and in assay [2] was above 1000 nM each time.

Regarding `Fc1cc(Nc2ncc(-c3cn[nH]c3)n3ncnc23)ccc1N1CCOCC1` [Compound 17, (3-Fluoro-4-morpholinophenyl)-5-(1H-pyrazol-4-yl)-[1,2,4]triazolo[1,5-a]pyrazin-8-amine], the IC50 on MAPKAPK5 is above 1000 nM. Besides, the EC50 in assay [1] and in assay [2] was above 1000 nM each time.

The compound `Clc1cc(Nc2ncc(-c3cn[nH]c3)n3ncnc23)ccc1N1CCOCC1` [Compound 18] had an IC50 against MAPKAPK5 above 1000 nM. The EC50 in assay [1] was above 1000 nM; in assay [2], 501 to 1000 nM.

With `NC(=O)c1cc(Nc2ncc(-c3cn[nH]c3)n3ncnc23)ccc1N1CCOCC1` [Compound 19, 5-(5-(1H-Pyrazol-4-yl)-[1,2,4]triazolo[1,5-a]pyrazin-8-ylamino)-2-morpholinobenzamide], the IC50 on MAPKAPK5 was above 1000 nM. The EC50 in assay [1] and in assay [2] was above 1000 nM in each case.

Compound `c1nc2c(Nc3ccc(OCCN4CCOCC4)cc3)ncc(-c3cn[nH]c3)n2n1` [Compound 20] gave a half-inhibitory concentration (IC50) on MAPKAPK5 above 1000 nM. Moreover, the EC50 in assay [1] and in assay [2] was above 1000 nM each time.

In the case of `NC(=O)c1cc(-c2cnc(Nc3ccc(OCCN4CCOCC4)cc3)c3ncnn23)cs1` [Compound 21, 4-(8-(4-(2-Morpholinoethoxy)phenylamino)-[1,2,4]triazolo[1,5-a]pyrazin-5-yl)thiophene-2-carboxamide], the IC50 against MAPKAPK5 was 101 to 500 nM. The EC50 in assay [1] is above 1000 nM; in assay [2], 101 to 500 nM.

For the compound `NC(=O)c1ccc(-c2cnc(Nc3ccc(OCCN4CCOCC4)cc3)c3ncnn23)s1` [Compound 22, 5-(8-(4-(2-Morpholinoethoxy)phenylamino)-[1,2,4]triazolo[1,5-a]pyrazin-5-yl)thiophene-2-carboxamide], the IC50 on MAPKAPK5 lay within 501 to 1000 nM. Besides, the EC50 in assay [1] and in assay [2] was above 1000 nM throughout.

For `c1cc(-c2cnc(Nc3ccc(N4CCOCC4)cc3)c3ncnn23)[nH]n1` [Compound 23, (4-Morpholin-4-yl-phenyl)-[5-(2H-pyrazol-3-yl)-[1,2,4]triazolo[1,5-a]pyrazin-8-yl]-amine], on MAPKAPK5, the half-maximal inhibitory concentration (IC50) was above 1000 nM. For the same compound, the EC50 in assay [1] and in assay [2] was above 1000 nM each time.

Consider `C[C@@H]1CN(c2ccc(Nc3ncc(-c4csc(C(N)=O)c4)n4ncnc34)cc2)C[C@H](C)O1` [Compound 24], for which the IC50 against MAPKAPK5 fell in the range of 501 to 1000 nM. For the same compound, the EC50 in assay [1] is above 1000 nM; in assay [2], 101 to 500 nM.

In the case of `FC(F)(F)c1cc(Nc2ncc(-c3cn[nH]c3)n3ncnc23)ccc1N1CCOCC1` [Compound 25], the IC50 against MAPKAPK5 is above 1000 nM. For the same compound, the EC50 in assay [1] and in assay [2] was above 1000 nM in each case.

Consider `CC(C)N1CCN(c2ccc(Nc3ncc(-c4cc(F)c(C(N)=O)c(F)c4)n4ncnc34)cc2)CC1` [Compound 26], for which the IC50 at MAPKAPK5 is above 1000 nM. For the same compound, the EC50 in assay [1] is 501 to 1000 nM; in assay [2] it was above 1000 nM.

The compound `NC(=O)c1cc(-c2cnc(Nc3ccc(N4CCNCC4)cc3)c3ncnn23)cs1` [Compound 27] came in with an IC50 on MAPKAPK5 of 101 to 500 nM. The EC50 in assay [1] is above 1000 nM; in assay [2] it was 501 to 1000 nM.

At MAPKAPK5, `CC(C)N1CCN(c2ccc(Nc3ncc(-c4csc(C(N)=O)c4)n4ncnc34)cc2)CC1` [Compound 28, 4-(8-(4-(4-Isopropylpiperazin-1-yl)phenylamino)-[1,2,4]triazolo[1,5-a]pyrazin-5-yl)thiophene-2-carboxamide] yielded an IC50 of 1 to 100 nM. Further, the EC50 in assay [1] is above 1000 nM; in assay [2], 501 to 1000 nM.

For `NC(=O)c1coc(-c2cnc(Nc3ccc(N4CCOCC4)cc3)c3ncnn23)c1` [Compound 29, 5-(8-(4-Morpholinophenylamino)-[1,2,4]triazolo[1,5-a]pyrazin-5-yl)furan-3-carboxamide], at MAPKAPK5, the IC50 was above 1000 nM. In addition, the EC50 in assay [1] and in assay [2] was above 1000 nM in each case.

Take `CC(C)N1CCN(c2ccc(Nc3ncc(-c4cc(C(N)=O)co4)n4ncnc34)cc2)CC1` [Compound 30]: the IC50 at MAPKAPK5 was above 1000 nM. The EC50 in assay [1] and in assay [2] was above 1000 nM each time.

With `C[C@@H]1CN(c2ccc(Nc3ncc(-c4cn[nH]c4)n4ncnc34)cc2)[C@@H](C)CN1C` [Compound 31], the IC50 on MAPKAPK5 lay in the range of 101 to 500 nM. Moreover, the EC50 in assay [1] and in assay [2] was above 1000 nM each time.

As to `C[C@@H]1CN(c2ccc(Nc3ncc(-c4csc(C(N)=O)c4)n4ncnc34)cc2)[C@@H](C)CN1C` [Compound 32], the IC50 on MAPKAPK5 lay within 101 to 500 nM. In addition, the EC50 in assay [1] and in assay [2] was 501 to 1000 nM in each case.

On MAPKAPK5, `NC(=O)c1cc(-c2cnc(Nc3ccc(N4CCOCC4)cc3)c3ncnn23)co1` [Compound 34, 4-(8-(4-Morpholinophenylamino)-[1,2,4]triazolo[1,5-a]pyrazin-5-yl)furan-2-carboxamide] displayed an IC50 of 101 to 500 nM. Moreover, the EC50 is above 1000 nM in assay [1] and 1 to 100 nM in assay [2].

At MAPKAPK5, `O=C1NCCc2cc(-c3cnc(Nc4ccc(N5CCOCC5)cc4)c4ncnn34)ccc21` [Compound 35, 6-(8-(4-Morpholinophenylamino)-[1,2,4]triazolo[1,5-a]pyrazin-5-yl)-3,4-dihydroisoquinolin-1(2H)-one] displayed an IC50 above 1000 nM. Moreover, the EC50 in assay [1] was above 1000 nM; in assay [2] it was 101 to 500 nM.

Compound `CC(C)N1CCN(c2ccc(Nc3ncc(-c4ccc5c(c4)CNC5=O)n4ncnc34)cc2)CC1` [Compound 36, 5-(8-(4-(4-Isopropylpiperazin-1-yl)phenylamino)-[1,2,4]triazolo[1,5-a]pyrazin-5-yl)isoindolin-1-one] registered an IC50 on MAPKAPK5 of 1 to 100 nM. In addition, the figures for the EC50 in assay [1] and in assay [2] were above 1000 nM and 101 to 500 nM, respectively.
